The values that follow are results of earlier work, collected in PubChem BioAssay AID1259409 (Chemical Carcinogenesis Research Information System (CCRIS), 2018).

Each structure is given as a SMILES string.

For this data set, the system named is rodent chemically induced tumor inhibition, incidence and multiplicity. Kind of data set: CCRIS tumor inhibitor studies.

Turning to `C#C[C@]1(O)CC[C@H]2[C@@H]3CCc4cc(O)ccc4[C@H]3CC[C@@]21C`, the “tumour outcome (control, treated, inhibition, significance)” value (Carcinogen: N-METHYL-N-NITROSOUREA, 684-93-5, Dose [Inhibitor]: 0, 0.001% IN DIET BEGINNING POST CARCINOGEN TREATMENT AND CONTINUING FOR 23 WK (STUDY DURATION: 25 WK), Route [Inhibitor]: ORAL, Species: RAT, Strain/Sex: F344/MALE, Target Tissue: Type of Lesion: FORESTOMACH: PAPILLOMA, Dose [Carcinogen]: 50 MG/KG 4/2 WK, Promoter: NONE USED) was 8/17 (47%), 4/20 (20%), 57%, not calculated; the “tumour outcome (control, treated, inhibition, significance)” value (Carcinogen: N-METHYL-N-NITROSOUREA, 684-93-5, Dose [Inhibitor]: 0, 0.001% IN DIET BEGINNING POST CARCINOGEN TREATMENT AND CONTINUING FOR 23 WK (STUDY DURATION: 25 WK), Route [Inhibitor]: ORAL, Species: RAT, Strain/Sex: F344/MALE, Target Tissue: Type of Lesion: FORESTOMACH: SQUAMOUS CELL CARCINOMA, Dose [Carcinogen]: 50 MG/KG 4/2 WK, Promoter: NONE USED) is 2/17 (12%), 2/20 (10%), 17%, not calculated; the “tumour outcome (control, treated, inhibition, significance)” value (Carcinogen: N-METHYL-N-NITROSOUREA, 684-93-5, Dose [Inhibitor]: 0, 0.001% IN DIET BEGINNING POST CARCINOGEN TREATMENT AND CONTINUING FOR 23 WK (STUDY DURATION: 25 WK), Route [Inhibitor]: ORAL, Species: RAT, Strain/Sex: F344/MALE, Target Tissue: Type of Lesion: HEMATOPOIETIC SYSTEM: LYMPHOMA OR LEUKEMIA, Dose [Carcinogen]: 50 MG/KG 4/2 WK, Promoter: NONE USED) is 3/17 (18%), 0/20 (0%), 100%, not calculated; the “tumour outcome (control, treated, inhibition, significance)” value (Carcinogen: N-METHYL-N-NITROSOUREA, 684-93-5, Dose [Inhibitor]: 0, 0.001% IN DIET BEGINNING POST CARCINOGEN TREATMENT AND CONTINUING FOR 23 WK (STUDY DURATION: 25 WK), Route [Inhibitor]: ORAL, Species: RAT, Strain/Sex: F344/MALE, Target Tissue: Type of Lesion: SMALL INTESTINE: ADENOCARCINOMA, Dose [Carcinogen]: 50 MG/KG 4/2 WK, Promoter: NONE USED) is on record as 9/17 (53%), 0/20 (0%), 100%, not calculated; the “tumour outcome (control, treated, inhibition, significance)” value (Carcinogen: N-METHYL-N-NITROSOUREA, 684-93-5, Dose [Inhibitor]: 0, 0.001% IN DIET BEGINNING POST CARCINOGEN TREATMENT AND CONTINUING FOR 23 WK (STUDY DURATION: 25 WK), Route [Inhibitor]: ORAL, Species: RAT, Strain/Sex: F344/MALE, Target Tissue: Type of Lesion: SMALL INTESTINE: ADENOMA, Dose [Carcinogen]: 50 MG/KG 4/2 WK, Promoter: NONE USED) is given as 10/17 (59%), 7/20 (35%), 41%, not calculated; the “tumour outcome (control, treated, inhibition, significance)” value (Carcinogen: N-METHYL-N-NITROSOUREA, 684-93-5, Dose [Inhibitor]: 0, 0.001% IN DIET BEGINNING POST CARCINOGEN TREATMENT AND CONTINUING FOR 23 WK (STUDY DURATION: 25 WK), Route [Inhibitor]: ORAL, Species: RAT, Strain/Sex: F344/MALE, Target Tissue: Type of Lesion: THYROID: ADENOCARCINOMA, Dose [Carcinogen]: 50 MG/KG 4/2 WK, Promoter: NONE USED) is 1/17 (6%), 0/20 (0%), 100%, not calculated. The “tumour outcome (control, treated, inhibition, significance)” value reads like this: (Carcinogen: N-METHYL-N-NITROSOUREA, 684-93-5, Dose [Inhibitor]: 0, 0.001% IN DIET BEGINNING POST CARCINOGEN TREATMENT AND CONTINUING FOR 23 WK (STUDY DURATION: 25 WK), Route [Inhibitor]: ORAL, Species: RAT, Strain/Sex: F344/MALE, Target Tissue: Type of Lesion: THYROID: ADENOMA, Dose [Carcinogen]: 50 MG/KG 4/2 WK, Promoter: NONE USED) 3/17 (18%), 0/20 (0%), 100%, not calculated; (Carcinogen: N-METHYL-N-NITROSOUREA, 684-93-5, Dose [Inhibitor]: 0, 0.001% IN DIET BEGINNING POST CARCINOGEN TREATMENT AND CONTINUING FOR 23 WK (STUDY DURATION: 25 WK), Route [Inhibitor]: ORAL, Species: RAT, Strain/Sex: F344/MALE, Target Tissue: Type of Lesion: TONGUE: PAPILLOMA, Dose [Carcinogen]: 50 MG/KG 4/2 WK, Promoter: NONE USED) 2/17 (12%), 2/20 (10%), 16%, not calculated; (Carcinogen: N-METHYL-N-NITROSOUREA, 684-93-5, Dose [Inhibitor]: 0, 0.001% IN DIET BEGINNING POST CARCINOGEN TREATMENT AND CONTINUING FOR 23 WK (STUDY DURATION: 25 WK), Route [Inhibitor]: ORAL, Species: RAT, Strain/Sex: F344/MALE, Target Tissue: Type of Lesion: TONGUE: SQUAMOUS CELL CARCINOMA, Dose [Carcinogen]: 50 MG/KG 4/2 WK, Promoter: NONE USED) 2/17 (12%), 0/20 (0%), 100%, not calculated; (Carcinogen: N-METHYL-N-NITROSOUREA, 684-93-5, Dose [Inhibitor]: 0, 0.001% IN DIET BEGINNING POST CARCINOGEN TREATMENT AND CONTINUING FOR 23 WK (STUDY DURATION: 25 WK), Route [Inhibitor]: ORAL, Species: RAT, Strain/Sex: F344/MALE, Target Tissue: Type of Lesion: URINARY BLADDER: PAPILLOMA, Dose [Carcinogen]: 50 MG/KG 4/2 WK, Promoter: NONE USED) 2/17 (18%), 0/20 (0%), 100%, not calculated.

In the case of `C=C1CC[C@H](O)C/C1=C/C=C1\CCC[C@]2(C)[C@@H]([C@H](C)CCCC(C)C)CC[C@@H]12`, the “tumour outcome (control, treated, inhibition, significance)” value is 33%, 41%, -24%, not significant (Carcinogen: N-BUTYL-N-(4-HYDROXYBUTYL)NITROSAMINE, 3817-11-6, Dose [Inhibitor]: 0.002% DIET DAILY FOR 7 WK FOLLOWED BY 1 WK OF NO TREATMENT THEN 5 WK OF 0.001% DIET DAILY AND NO FURTHER TREATMENT THRO, Route [Inhibitor]: ORAL, Species: RAT, Strain/Sex: F344/MALE, Target Tissue: Type of Lesion: URINARY BLADDER: PAPILLOMA, Dose [Carcinogen]: 0.01% IN DRINKING WATER FOR 4 WK, Promoter: NONE USED); 25/25 (100%), 25/25 (100%), 0%, not significant (Carcinogen: N-METHYL-N-NITROSOUREA, 684-93-5, Dose [Inhibitor]: 0, 3.3 UG/KG OF DIET FOR 147 D (STUDY DURATION: 150 D), Route [Inhibitor]: ORAL, Species: RAT, Strain/Sex: SPRAGUE-DAWLEY/FEMALE, Target Tissue: Type of Lesion: MAMMARY GLAND: ADENOCARCINOMA, Dose [Carcinogen]: 50 MG/KG BW ONCE 3 D BEFORE INITIAL INHIBITOR DOSE, Promoter: NONE USED); 25/25 (100%), 25/25 (100%), 0%, not significant (Carcinogen: N-METHYL-N-NITROSOUREA, 684-93-5, Dose [Inhibitor]: 0, 10 UG/KG OF DIET FOR 147 D (STUDY DURATION: 150 D), Route [Inhibitor]: ORAL, Species: RAT, Strain/Sex: SPRAGUE-DAWLEY/FEMALE, Target Tissue: Type of Lesion: MAMMARY GLAND: ADENOCARCINOMA, Dose [Carcinogen]: 50 MG/KG BW ONCE 3 D BEFORE INITIAL INHIBITOR DOSE, Promoter: NONE USED).

With `Nc1nc2ncc(CNc3ccc(C(=O)N[C@@H](CCC(=O)O)C(=O)O)cc3)nc2c(=O)[nH]1`, the “tumour outcome (control, treated, inhibition, significance)” value runs as follows: (Carcinogen: HYDRAZINE SULFATE, 10034-93-2, Dose [Inhibitor]: 1.1 MG/D IN DIET STARTING 1 WK PRIOR TO ADMINISTRATION OF CARCINOGEN UNTIL END OF EXPERIMENT (STUDY DURATION: APPROXIMAT, Route [Inhibitor]: ORAL, Species: MOUSE, Strain/Sex: SWISS/MALE, FEMALE, Target Tissue: Type of Lesion: LIVER AND LUNG: COMBINED TUMORS, Dose [Carcinogen]: 1.1 MG/D 5 D/WK UNTIL 12 MO OF AGE, Promoter: NONE USED) 24/29 (83%), 19/31 (61%), 26%, p<0.1; (Carcinogen: ISONIAZID, 54-85-3, Dose [Inhibitor]: 1.1 MG/D SIMULTANEOUS WITH CARCINOGEN 6 D/WK (STUDY DURATION: LIFETIME), Route [Inhibitor]: INTRAGASTRIC, Species: MOUSE, Strain/Sex: SWISS/MALE, Target Tissue: Type of Lesion: LUNG: TUMOR, Dose [Carcinogen]: 1.1 MG/D SIMULTANEOUS WITH INHIBITOR, Promoter: NONE USED) 15/29 (52%), 0/16 (0%), 100%, p<0.01; (Carcinogen: N-methyl-N'-nitro-N-nitrosoguanidine, 70-25-7, Dose [Inhibitor]: 0, 5 mg/kg in water for 50 weeks beginning at 6 weeks of age, Route [Inhibitor]: Oral, Species: Rat, Strain/Sex: Wistar/Male, Target Tissue: Type of Lesion: Stomach: Tumor, Dose [Carcinogen]: 100 mg/L in drinking water for 50 weeks) 5/11 (45.5%), 0/10 (0%), 100% p<0.05.
